Measured values taken from US20250171438A1 (Agios Pharmaceuticals, Inc., priority 2022, published 2025).

target: T1, human PAH with the R408W mutation (Homo sapiens, UniProt P00439, R408W); assay: Cell Based Phenylalanine Flux Assay; conditions: A375 cells expressing human R408W PAH; 24 hrs with compound; 13C-Tyrosine by LC-MS; average where tested multiple times; read-out: AC50
T1 construct: expressed in transfected cells
T1 sequence (P00439 1-452 R408W): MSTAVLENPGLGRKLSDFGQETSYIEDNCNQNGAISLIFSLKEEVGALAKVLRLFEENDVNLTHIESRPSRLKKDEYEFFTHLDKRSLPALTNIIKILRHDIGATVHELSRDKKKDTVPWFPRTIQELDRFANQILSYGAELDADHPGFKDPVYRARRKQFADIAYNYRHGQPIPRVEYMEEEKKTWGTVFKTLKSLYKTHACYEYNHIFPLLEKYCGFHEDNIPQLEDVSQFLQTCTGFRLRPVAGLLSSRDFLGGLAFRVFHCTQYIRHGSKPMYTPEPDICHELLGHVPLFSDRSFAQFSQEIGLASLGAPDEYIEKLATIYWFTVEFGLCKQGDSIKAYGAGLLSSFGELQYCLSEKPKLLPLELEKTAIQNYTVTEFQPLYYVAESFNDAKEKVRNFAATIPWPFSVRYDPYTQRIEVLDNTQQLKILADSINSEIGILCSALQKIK

Q: How did the AC50 turn out when `Cc1nc(C(=O)N2CCc3[nH]cnc3C2c2nc3ccccc3s2)n(C)n1` (stereo not shown) was run?
A: 1 to 5 µM

Q: With `Cc1nc(C(=O)N2CCc3[nH]cnc3C2c2nc3c(F)cccc3s2)n(C)n1` (stereo not shown) as the compound, how does the AC50 read?
A: 1 to 5 µM

Q: With `O=C(c1oc(C2CCN2)nc1C(F)F)N1CCc2[nH]cnc2C1c1nc2c(F)cccc2s1` (stereo not shown) as the compound, how does the AC50 read?
A: 1 to 5 µM

Q: `Cc1nc(C2CCN2)oc1C(=O)N1CCc2[nH]cnc2C1c1nc2c(F)cccc2s1` (stereo not shown) was tested. Which AC50 did it give?
A: > 5 µM

Q: For `Cn1ncc(C(=O)N2CCc3[nH]cnc3C2c2nc3ccccc3s2)n1` (stereo not shown), which AC50 is on record?
A: 1 to 5 µM

Q: How did the AC50 turn out when `Cn1nnc(C(=O)N2CCc3[nH]cnc3C2c2nc3ccccc3s2)n1` (stereo not shown) was run?
A: 1 to 5 µM

Q: Which AC50 does the source give for `Cn1nc(C(F)F)nc1C(=O)N1CCc2[nH]cnc2C1c1nc2c(F)cccc2s1` (stereo not shown) here?
A: 1 to 5 µM

Q: With `O=C(c1cc(C(F)F)n[nH]1)N1CCc2[nH]cnc2C1c1nc2c(F)cccc2s1` (stereo not shown) as the compound, how does the AC50 read?
A: 1 to 5 µM

Q: `Cn1nc(Br)nc1C(=O)N1CCc2[nH]cnc2C1c1nc2c(F)cccc2s1` (stereo not shown) was tested. Which AC50 did it give?
A: 1 to 5 µM

Q: With `Cn1nc(C2CC2)nc1C(=O)N1CCc2[nH]cnc2C1c1nc2ccccc2s1` (stereo not shown) as the compound, how does the AC50 read?
A: 1 to 5 µM

Q: How did the AC50 turn out when `Cn1nc(C2CC2)nc1C(=O)N1CCc2[nH]cnc2C1c1nc2c(F)cccc2s1` (stereo not shown) was run?
A: 1 to 5 µM

Q: With `Cn1nc(C(C)(C)O)nc1C(=O)N1CCc2[nH]cnc2C1c1nc2ccccc2s1` (stereo not shown) as the compound, how does the AC50 read?
A: 1 to 5 µM

Q: How did the AC50 turn out when `Cn1nc(CC#N)nc1C(=O)N1CCc2[nH]cnc2C1c1nc2c(F)cccc2s1` (stereo not shown) was run?
A: 1 to 5 µM

Q: With `CC(C)(O)c1noc(C(=O)N2CCc3[nH]cnc3C2c2nc3c(F)cccc3s2)n1` (stereo not shown) as the compound, how does the AC50 read?
A: 1 to 5 µM

Q: With `CC(C)(O)c1cc(C(=O)N2CCc3[nH]cnc3C2c2nc3c(F)cccc3s2)sn1` (stereo not shown) as the compound, how does the AC50 read?
A: 1 to 5 µM

Q: `Cn1nc(C(C)(C)O)nc1C(=O)N1CCc2[nH]cnc2C1c1nc2c(F)cccc2s1` (stereo not shown) was tested. Which AC50 did it give?
A: > 5 µM

Q: Which AC50 does the source give for `CC(C)(O)c1nsc(C(=O)N2CCc3[nH]cnc3C2c2nc3c(F)cccc3s2)n1` (stereo not shown) here?
A: 1 to 5 µM

Q: Which AC50 does the source give for `Cn1nc(C(C)(C)O)cc1C(=O)N1CCc2[nH]cnc2C1c1nc2c(F)cccc2s1` (stereo not shown) here?
A: 1 to 5 µM

Q: `CC(C)(O)c1cc(C(=O)N2CCc3[nH]cnc3C2c2nc3c(F)cccc3s2)[nH]n1` (stereo not shown) was tested. Which AC50 did it give?
A: 1 to 5 µM

Q: For `Cc1nnc(C(=O)N2CCc3[nH]cnc3C2c2nc3c(F)cccc3s2)n1C` (stereo not shown), which AC50 is on record?
A: 1 to 5 µM

Q: For `O=C(c1nnc(C2CNC2)o1)N1CCc2[nH]cnc2C1c1nc2ccccc2s1` (stereo not shown), which AC50 is on record?
A: > 5 µM

Q: For `Cn1ncc(C(=O)N2CCc3[nH]cnc3C2c2nc3c(C(F)(F)F)cccc3s2)c1C(F)F` (stereo not shown), which AC50 is on record?
A: 1 to 5 µM

Q: `Cn1ncc(C(=O)N2CCc3[nH]cnc3C2c2nc3c(F)cccc3s2)c1Br` (stereo not shown) was tested. Which AC50 did it give?
A: 1 to 5 µM

Q: With `Cn1ncc(C(=O)N2CCc3[nH]cnc3C2c2nc3c(C(F)(F)F)cccc3s2)c1Cl` (stereo not shown) as the compound, how does the AC50 read?
A: 1 to 5 µM

Q: With `Cc1cccc2sc(C3c4nc[nH]c4CCN3C(=O)c3cnn(C)c3Cl)nc12` (stereo not shown) as the compound, how does the AC50 read?
A: 1 to 5 µM

Q: `NC(=O)Cn1ncc(C(=O)N2CCc3[nH]cnc3C2c2nc3c(F)cccc3s2)c1C(F)F` (stereo not shown) was tested. Which AC50 did it give?
A: 1 to 5 µM

Q: With `O=C(c1cnn(CCO)c1Cl)N1CCc2[nH]cnc2C1c1nc2c(F)cccc2s1` (stereo not shown) as the compound, how does the AC50 read?
A: 1 to 5 µM

Q: Which AC50 does the source give for `CNC(=O)N1CC(C(=O)N2CCc3[nH]cnc3C2c2nc3ccccc3s2)C1` (stereo not shown) here?
A: > 5 µM

Q: How did the AC50 turn out when `O=C(C1CN(CC(F)(F)F)C1)N1CCc2[nH]cnc2C1c1nc2c(F)cccc2s1` (stereo not shown) was run?
A: 1 to 5 µM

Q: `Cn1cnc(C(=O)N2CCc3[nH]cnc3C2c2nc3c(F)cccc3s2)n1` (stereo not shown) was tested. Which AC50 did it give?
A: > 5 µM

Q: For `Cn1ccc(C(=O)N2CCc3[nH]cnc3C2c2nc3c(F)cccc3s2)n1` (stereo not shown), which AC50 is on record?
A: 1 to 5 µM

Q: `Cn1nc(COC(F)(F)F)cc1C(=O)N1CCc2[nH]cnc2C1c1nc2c(F)cccc2s1` (stereo not shown) was tested. Which AC50 did it give?
A: 1 to 5 µM

Q: `Cn1ncc(C(=O)N2CCc3[nH]cnc3C2c2nc3c(F)cccc3s2)c1C(F)(F)F` (stereo not shown) was tested. Which AC50 did it give?
A: 1 to 5 µM

Q: How did the AC50 turn out when `O=C(c1cn[nH]c1)N1CCc2nc[nH]c2C1c1nc2c(F)cccc2s1` (stereo not shown) was run?
A: 1 to 5 µM

Q: Which AC50 does the source give for `O=C(c1ccn[nH]1)N1CCc2[nH]cnc2C1c1nc2c(F)cccc2s1` (stereo not shown) here?
A: 1 to 5 µM

Q: For `Cc1nc(C(C)(C)S(C)(=O)=O)oc1C(=O)N1CCc2[nH]cnc2C1c1nc2c(F)cccc2s1` (stereo not shown), which AC50 is on record?
A: 1 to 5 µM

Q: With `Cn1ncc(C(=O)N2CCc3[nH]cnc3C2c2nc3c(F)cccc3s2)n1` (stereo not shown) as the compound, how does the AC50 read?
A: 1 to 5 µM

Q: Which AC50 does the source give for `Cn1nnc(C(=O)N2CCc3[nH]cnc3C2c2nc3c(F)cccc3s2)n1` (stereo not shown) here?
A: 1 to 5 µM

Q: `[2H]C([2H])([2H])OCc1cc(C(=O)N2CCc3[nH]cnc3C2c2nc3c(F)cccc3s2)n(C)n1` (stereo not shown) was tested. Which AC50 did it give?
A: 1 to 5 µM

Q: `COCc1cc(C(=O)N2CCc3[nH]cnc3C2c2nc3c(F)cccc3s2)[nH]n1` (stereo not shown) was tested. Which AC50 did it give?
A: 1 to 5 µM

Q: For `Cc1nc(N2CCN(C)CC2)oc1C(=O)N1CCc2[nH]cnc2C1c1nc2c(F)cccc2s1` (stereo not shown), which AC50 is on record?
A: 1 to 5 µM

Q: How did the AC50 turn out when `Cc1nc(N2CCOCC2)oc1C(=O)N1CCc2[nH]cnc2C1c1nc2c(F)cccc2s1` (stereo not shown) was run?
A: 1 to 5 µM

Q: Which AC50 does the source give for `Cn1nc(N)cc1C(=O)N1CCc2[nH]cnc2C1c1nc2ccccc2s1` (stereo not shown) here?
A: 1 to 5 µM

Q: With `Cn1nc(C(N)=O)cc1C(=O)N1CCc2[nH]cnc2C1c1nc2c(F)cccc2s1` (stereo not shown) as the compound, how does the AC50 read?
A: 1 to 5 µM

Q: With `CNC(C)(C)c1nc(C)c(C(=O)N2CCc3[nH]cnc3C2c2nc3c(F)cccc3s2)o1` (stereo not shown) as the compound, how does the AC50 read?
A: 1 to 5 µM

Q: With `O=C(c1cc(CO)n[nH]1)N1CCc2[nH]cnc2C1c1nc2c(F)cccc2s1` (stereo not shown) as the compound, how does the AC50 read?
A: > 5 µM
